{
  "source": "patent US9359419B2",
  "about": "“Treatment of vascular complications of diabetes” (priority 2010, dated 2016)",
  "key": {"[1]": {"test_system": "U46619-contracted septal coronary arteries", "assay": "Acetylcholine-induced vasorelaxation of septal coronary arteries from STZ-induced diabetic rats", "assay_type": "in vivo, rat", "conditions": "TIP peptide 125 μg i.p. every three days for four weeks, vs STZ group, n=3", "description": "and tested for their ability to relax in response to progressive concentrations of acetylcholine. The vasorelaxant responses are expressed as percent of maximal control relaxation."}, "[2]": {"test_system": "perfused rat hearts", "assay": "Cardiac permeability by BSA-FITC perfusion (Langendorff method) of hearts from STZ-treated rats", "assay_type": "in vivo", "conditions": "125 μg/rat over 4 wks i.p.", "protocol": "Following the same protocol as above, hearts from Ctrl, STZ-treated and TIP/STZ treated rats were isolated after 4 wks. The hearts were perfused using the Langendorff method with BSA-FITC (Di Napoli et al., Nitric Oxide 16 (2007), 228-236). Hearts were subsequently frozen in liquid nitrogen and slices were cut with a microtome. Subsequently, fluorescence was assessed in 4 slices of each heart and cumulative fluorescence responses were recorded."}, "[3]": {"test_system": "fresh human whole blood", "assay": "Release of Interleukin-6 from fresh human whole blood (ELISA)", "assay_type": "cell-based", "design": "Concentration of IL-6: unit of the concentration uncertain", "conditions": "for Concentration of IL-6: 24 hours, n = 5", "protocol": "It was the goal of this study to determine the pro-inflammatory signalling capacity of the AP301 peptide. Whole blood cultures were used and the secretion of interleukin-6 (IL-6), a very sensitive marker for pro-inflammatory stimulation, was quantified by ELISA.\n• Test system 25 ml of freshly taken heparinized blood from 5 healthy volunteers (HV) was used in the assays. […]\nWhole blood (WB) cultures were done by pipetting 1 ml of WB into wells of 24 well plates. In each experiment unstimulated and control-stimulated cultures were included.\nIf possible the substances and stimulants to be investigated were always added in an identical volume to each well of a given experiment, not greater than 10% of the total volume contained in a well. Unstimulated controls received PBS. Volume adjustments and dilutions for different treatments were also done with PBS.\nThe content of each well was mixed and the plates incubated at 37° C. and 5% CO2 for 24 hours. After incubation the content of each well was transferred to a fresh 1.5 ml microtube and centrifuged at 8000-9000×g for 15 minutes. The supernatant of each sample was transferred individually to two 1.5 ml microtubes and kept at −20° C. until use.\nInterleukin-6 was quantified by a specific ELISA (Human IL-6 ELISA Set, BD Biosciences, Cat. No. 555220) employing an anti-human IL-6 antibody as capture antibody, a biotinylated anti-human IL-6 detection antibody, avidin-horseradish peroxidase conjugate as enzyme reagent, and recombinant IL-6 as standard. Absorbance measurement was performed at 450 nm using the Packard FusionReader.\nThe results for each plate were stored and evaluated using the FusionDataAnalysis software. […]"}, "[4]": {"test_system": "STZ-treated rats", "conditions": "rat, in vivo", "experimental": "In this experiment, Male Sprague-Dawley rats (240 to 265 g, n=3) were divided into three groups: 1. Control rats receiving injections of vehicle alone, 2. rats rendered diabetic with STZ (50 mg/kg, intraperitoneally) and 3. […] Rats with blood levels >350 mg/dL were considered to be diabetic."}},
  "note": "“Also recorded” adds a separate entry of the source.",
  "data": [
    {"smiles": "C[C@@H]1NC(=O)CNC(=O)[C@H](CCC(=O)O)NC(=O)[C@@H]2CCCN2C(=O)[C@H]([C@@H](C)O)NC(=O)[C@H](CCC(=O)O)NC(=O)[C@H](CCCNC(=N)N)NC(=O)[C@H](CCC(N)=O)NC(=O)CNC(=O)[C@@H](N)CSSC[C@@H](C(=O)O)NC(=O)[C@H](Cc2ccc(O)cc2)NC(=O)[C@H](Cc2c[nH]c3ccccc23)NC(=O)[C@@H]2CCCN2C(=O)[C@H](CCCCN)NC(=O)[C@H](C)NC(=O)[C@H](CCC(=O)O)NC1=O", "note": "[AP301, (NH2) Cys-Gly-Gln-Arg-Glu-Thr-Pro-Glu-Gly-Ala-Glu-Ala-Lys-Pro-Trp-Tyr-Cys (COOH)]", "values": [
      {"measurement": "acetylcholine-induced vasorelaxation response in septal coronary arteries", "setting": "[1]", "result": "significantly improved the vasorelaxation response"},
      {"measurement": "cardiac permeability (Albumin-FITC incorporation)", "setting": "[2]", "result": "significantly inhibits cardiac hyperpermeability"},
      {"measurement": "cardiac permeability (Albumin-FITC incorporation)", "setting": "[2]; listed as TIP peptide", "result": "inhibits STZ-associated cardiac permeability"},
      {"measurement": "Concentration of IL-6", "setting": "[3]; concentration 1 ng/ml", "result": "less than 0.5 pg/ml"},
      {"measurement": "Concentration of IL-6", "setting": "[3]; concentration 3 ng/ml", "result": "less than 0.5 pg/ml"},
      {"measurement": "Concentration of IL-6", "setting": "[3]; concentration 1 (unit uncertain)", "result": "less than 0.5 pg/ml"},
      {"measurement": "Concentration of IL-6", "setting": "[3]; concentration 10 (unit uncertain)", "result": "less than 0.5 pg/ml"},
      {"measurement": "IL-6 secretion (pro-inflammatory response)", "setting": "[3]; whole blood cultures from five healthy donors, all concentrations tested (10 μg/ml to 1 ng/ml)", "result": "did not induce any detectable level of IL-6 secretion; also recorded: did not induce a pro-inflammatory response"},
      {"measurement": "weight", "setting": "[4]", "result": "increased weight loss"}
    ]}
  ]
}
